Source: patent publication US10934244B2, “Compounds for use in treating neuromuscular disorders” (NMD PHARMA A/S, priority 2015, dated 2021)

What was measured:
[1] = test system: isolated rat soleus muscles; experiment: Recovery of nerve-stimulated force in isolated rat soleus muscles exposed to sub-maximal tubocurarine; assay type: cell-based
Experimental: (§1) Experiments were performed using rat soleus muscles from either young (4-wk-old) or adult Wistar rats (12-14-week-old). Animal handling, killing and isolation of muscle is described elsewhere^26 All experiments were performed using normal Krebs-Ringer bicarbonate solution^26 (NKR). In solutions with elevated Mg^2+, MgCl2 was added to NKR-solution causing minor increases in osmolarity and ionic strength. In solutions with elevated K^+, 4 mM NaCl was replaced by 4 mM KCl in the NKR.
(§2) In all contraction experiments, isometric force production was determined and force produced during contractions was quantified by measuring the integral of the force response (AUC). Stimulation and force recordings have been described elsewhere^26. […] In these latter experiments, extracellular recordings of action potentials (M-waves) could be measured without temporal overlap with stimulation artefacts.
To initially confirm that inhibition of ClC-1 ion channels can be used to recover contractile force in muscle with reduced neuromuscular transmission, isolated nerve-muscle preparations were first exposed to either tubocurarine (FIG. 2A) or elevated Mg^2+ (FIG. 2B) and then a specific ClC-1 inhibitor (9-AC) was added. […]

rat soleus muscles = assay type: cell-based; settings: 10 and 25 μM, compared to control conditions; 1 μM μ-conotoxin GiiiB
[2] = Pharmacokinetic analysis of a single I.P. dose in rats; assay type: in vivo; settings: rat, ip, single I.P. dose 10 mg/kg, Sprague-Dawley rats, plasma
Experimental: This part of the study was performed by Pipeline Biotech A/S (Spørring, Denmark). […] Plasma concentrations (free and bound) were determined by OnTarget Chemistry (Uppsala, Sweden, Project No.: PB243-001).
Before conducting in vivo experiments with animal models of myasthenia gravis, some pharmacokinetic details were obtained for C8 in response to one-bolus I.P. injection.

isolated human muscles = assay type: cell-based; settings: 150 μM C8; elevated K+ and TTX
[3] = test system: rats injected with MAB35 monoclonal antibody; experiment: Rotarod running performance in passive immunization model of myasthenia gravis (MAB35); assay type: in vivo, rat; settings: compared to sham
Experimental: FIG. 10. […] Prior to I.P. injection of MAB35 the animals had been familiarized to the rotarod over three training sessions distributed over two days. […] After this treatment performance was monitored every second hour. *Indicates significant different as evaluated using student t-test.
(§3) In both series of experiments, running performance was tested on a rotarod using a protocol where the rod was accelerated gradually over a 5 min period, and the running time and covered distance before falling off the rod were measured.
In experiments with MAB35, animals were first familiarized with the rotarod over two consecutive days and then injected I.P. with MAB35. After injection, rotarod performance was then again monitored regularly over the consecutive two days. […] A considerable number of animals, however, became moribund failing to walk and they had altered ventilation (rapid) and pronounced ptosis. These animals were not included in experiments.
In the last series of experiments, myasthenia gravis was mimicked in rats by inducing an immunological reaction against the motor endplate of muscle fibers using monoclonal antibody against the nicotinic ACh receptor in muscle fibers. Again the animals had been familiarized to the rotarod before the MAB35 injection. […] From FIG. 10 it can be seen that upon injection sham treatment the performance further declined.

[4] = test system: rats injected with tubocurarine; experiment: Rotarod running performance of rats after I.P. tubocurarine (myasthenia like phenotype); assay type: in vivo, rat; settings: C8 20 mg/kg I.P. 2 hrs before tubocurarine 0.13 mg/kg I.P.; tested 21 minutes after tubocurarine; sham around 2%
Experimental: FIG. 9. […] A) illustrates the design of the experiments. Prior to Day One the animals had been familiarized to the rotarod in three training sessions distributed over two days.
as §3
Experiments with tubocurarine were carried out over two days, and on each day the effect of tubocurarine on running performance was tested. On the first day only tubocurarine was injected. […] On the second day, the animals were first allowed to run on the rotarod, and all animals performed normally. […] The allocation of the animals into the two groups (C8 or sham) was random and unknown to the experimenter (blinded experimental design).
In the first series of in vivo experiments, myasthenia gravis was simply mimicked by I.P. injection of tubocurarine (0.13 mg/kg) in animals that had been familiarized to running on the rotarod. On the first of two consecutive days, tubocurarine was injected I.P. and the running performance of the animal was tested 21 minutes after this injection. On the second day of experimentation, the animals first performed a test run to ensure that they were no longer affected by the tubocurarine injected the day before. […]

soleus muscles = experiment: Mg2+ concentration required to depress nerve-stimulated force by 50% (Kd,Mg2+), combination treatments; assay type: cell-based, rat; settings: C8 combined with 3,4-diaminopyridine
Experimental: FIG. 6. […] Muscles from 4-week-old rats were stimulated to contract by activating the motor nerve with short duration pulses in field stimulation. Muscles contracted every 10 min for 2 s in response to 30 Hz stimulation. Four different experimental conditions were used. […] C) similar to A) but this muscle had been pre-incubated with 3,4-AP. […] The force integral (AUC) was determined at each extracellular Mg^2+ concentration. AUC was plotted against Mg^2+ concentration and the data was fitted to a sigmoidal function (FIG. 6E). This provided the extracellular Mg^2+ concentration that was required to reduce the nerve-stimulated force to 50% (Mg50) under the four different conditions (see Table 5).
While the use of tubocurarine mimics conditions with reduced neuromuscular transmission due to post-synaptic dysfunction (myasthenia gravis, neuromuscular blockade), the experiments with elevated extracellular Mg^2+ mimics conditions with pre-synaptic dysfunction akin to a range of neuromuscular disorders including Lambert Eaton syndrome^26, motor neuron disorders^6-9 and polyneuropathy^18, 19. […] Based on this it was determined whether recovery of nerve-stimulated force at elevated extracellular Mg^2+ with ClC-1 inhibiting compounds could be added to force recovery with 3,4-AP. […] To quantify the effect of compounds on Mg^2+ sensitivity the force at the different Mg^2+ concentrations was determined. […]

[5] = test system: isolated rat soleus muscles; experiment: Recovery of nerve-stimulated force in isolated rat soleus muscles at elevated extracellular Mg2+ (3.5 mM); assay type: cell-based; settings: muscle at elevated Mg2+ (3.5 mM); FIG. 2B
Experimental: as §1
as §2, with “artefacts. […]” for “artefacts.”
The next series of experiments determined whether the compounds that recovered nerve-stimulated force in the presence of tubocurarine could also recover nerve-stimulated force at elevated extracellular Mg^2+.

Structure (SMILES) | nerve-stimulated force after addition of compound (in words) ([1]; 50 μM added after 40 min in tubocurarine, FIG. 3A) | EPP amplitude (rat soleus muscles) | AUC(0-t) [2] [µg·h/mL] | C0 [2] [ng/mL] | Cmax [2] [ng/mL] | AUC(0-inf) ([2]; read-out: AUC 0-inf_obs) [µg·h/mL] | half-life ([2]; read-out: t½ (converted)) [h] | contractile force (isolated human muscles) | rotarod running performance after injection ([3]; 20 mg/kg C8 I.P.) | rotarod running performance after injection ([3]; 30 mg/kg C8 I.P.) | increase in running distance on second day compared to first day [4] | effect of combination on recovery of neuromuscular transmission (soleus muscles) | recovery of force and M-wave signal ([1]; muscle exposed to tubocurarine, FIG. 2A) | recovery of force and M-wave signal [5]
C[C@H](Oc1ccc(Br)cc1)C(=O)O [Compound C8, (2S)-2-(4-bromophenoxy)propanoic acid] | recovered markedly | significantly larger EPPs | 204 | 24500 | 44600 | 205 | 3.7 | markedly recovery | decline was reduced | clear recovery of performance | around 150% | unexpected synergistic effect |  | 
O=C(O)c1c2ccccc2cc2ccccc12 [Compound 9-AC, reference compound] |  |  |  |  |  |  |  |  |  |  |  |  | marked recovery of both force and M-wave signal | marked recovery of both force and M-wave signal
